Assay results published in patent publication US8173680B2, “Cannabinoid receptor modulators” (7TM Pharma A/S, priority 2007, dated 2012).

Biological target: T1, human CB1 receptor (Homo sapiens, UniProt P21554)
T1 construct: expressed in transfected cells; membrane preparation
Assay: Cannabinoid Receptor-1 functional assay: inhibition of CP55940-induced [35S]GTPγS binding to membranes from CHO-K1 cells expressing the human CB1 receptor
Type: biochemical
Details: antagonizing CB1 receptor agonist CP55940 (3 nM), [35S]GTPγS SPA, read-out: Antagonism IC50
Excerpt: Transfection and Cell Culture—The cDNA encoding the human CB1 (Cannabinoid Receptor-1) receptor (GenBank accession number NM_016083) was cloned from a human adipose tissue cDNA library and cloned into the eukaryotic expression vector pcDNA3.1 (Invitrogen).
Chinese Hamster Ovary cells (CHO-K1) stably expressing recombinant human CB1 receptors were generated by transfecting the plasmid containing the coding sequence of the human CB1 receptor in CHO-K1 cells, using lipofectamine, according to the manufacturers instructions. Resistant clones were selected in the presence of 600 μg/ml G418 (Life technology). Stably transfected CHO-K1 cells were maintained in Ham's F-12 culture medium (Invitrogen), supplemented with 10% fetal calf serum (Invitrogen), 100 U/ml penicillin, 100 μg/ml streptomycin (Life Technology), and 600 μg/ml G418.
Cannabinoid Receptor-1 Functional Assay.
Functional activities of the above examples of compounds of the invention were assessed in vitro by measuring their ability to inhibit CP55940-induced [^35S]GTPγS binding to membranes prepared from CHO-K1 cells expressing the human CB1 receptor (described in Transfection and Cell Culture). CP55940 is a well known non-selective CB1 and CB2 receptor agonist (e.g Felder et al., 1995, Molecular Pharmacology, (48) 443-50). Membranes were prepared by a standard procedure. Briefly, cells were harvested using 10 mM EDTA and collected by centrifugation. Pelleted cells were homogenized in ice-cold 20 mM Hepes (pH 7.4), 10 mM EDTA and protease inhibitors (Complete protease inhibitor cocktail tablet, Roche) using an Ultra Turrax Homogenizer. The homogenate was centrifuged at 14 000 rpm for 45 min. at 4° C. The resultant pellet was resuspended in the same buffer but with only 0.1 mM EDTA and was again centrifuged at 14 000 rpm for 45 min. at 4° C. The resulting pellet (membranes) was resuspended in 20 mM Hepes (pH 7.4), 0.1 mM EDTA, 2 mM MgCl2 and protease inhibitors and protein concentration was determined by Micro BCA Protein Assay Reagent Kit (Pierce Biotechnology) according to the manufacturers instructions. The [^35S]GTPγS SPA (Scintillation Proximity Assay) binding assay was performed by incubating 5 μg/well membranes prepared from CHO-K1 cells expressing the human CB1 receptor with 1 nM [^35S]GTPγS (Perkin Elmer—NEG 030H) in the presence of 3 nM of CP55940 and various concentrations of the test compounds at room temperature for 1 hr in 96-well microtiter plates. 0.4 mg/well SPA beads (PVT-WGA; RPNQ0001 Amersham Pharmacia Biotech) were then added and the incubation continued for further 30 min. on an orbital shaker. The assay buffer contained 50 mM HEPES (pH 7.5), 50 mM NaCl, 2.5 mM MgCl2, 0.1% BSA, 1 μM GDP and 100 μg/ml Saponin. Microtiter plates were centrifuged at 1500 rpm for 5 min. and radioactivity was read immediately using a Topcounter (PerkinElmer Life Sciences). Data were analyzed and IC50 values determined by non-linear regression analysis using the Prism software (GraphPad Software, San Diego).

T1 sequence (P21554 whole entry): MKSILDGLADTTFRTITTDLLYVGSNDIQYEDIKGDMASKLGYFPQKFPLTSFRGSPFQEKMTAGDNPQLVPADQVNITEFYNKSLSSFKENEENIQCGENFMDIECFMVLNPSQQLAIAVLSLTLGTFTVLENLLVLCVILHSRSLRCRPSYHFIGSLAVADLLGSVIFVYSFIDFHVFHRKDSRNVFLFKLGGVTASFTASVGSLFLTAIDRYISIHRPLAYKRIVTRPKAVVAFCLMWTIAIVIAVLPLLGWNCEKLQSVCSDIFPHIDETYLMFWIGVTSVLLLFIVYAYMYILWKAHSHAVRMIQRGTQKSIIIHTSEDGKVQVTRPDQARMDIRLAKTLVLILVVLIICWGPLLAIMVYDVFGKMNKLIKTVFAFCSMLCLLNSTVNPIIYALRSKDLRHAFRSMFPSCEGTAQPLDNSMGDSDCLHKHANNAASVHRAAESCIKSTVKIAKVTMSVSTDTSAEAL

| Molecule | IC50 [nM] |
| --- | --- |
| 1-(2-Chloro-phenyl)-5-(4-chloro-phenyl)-4-(5-oxo-4,5-dihydro-[1,3,4]oxadiazol-2-ylmethyl)-1H-pyrazole-3-carboxylic acid ((R)-1-p-tolyl-ethyl)-amide [Compound 2.02] | < 500 |
| C[C@@H](NC(=O)c1nn(-c2ccccc2Cl)c(-c2ccc(Cl)cc2)c1Cc1noc(=O)[nH]1)c1ccc(C(F)(F)F)cc1 [Compound 1.01, 5-(4-Chloro-phenyl)-1-(2-chloro-phenyl)-4-(5-oxo-4,5-dihydro-[1,2,4]oxadiazol-3-ylmethyl)-1H-pyrazole-3-carboxylic acid [(R)-1-(4-trifluoromethyl-phenyl)-ethyl]-amide] | < 500 |
| O=C(c1nn(-c2ccccc2Cl)c(-c2ccc(Cl)cc2)c1Cc1n[nH]c(=O)o1)N1CCC(c2ccccc2F)CC1 [Compound 2.01, 5-{5-(4-Chloro-phenyl)-1-(2-chloro-phenyl)-3-[4-(2-fluoro-phenyl)-piperidine-1-carbonyl]-1H-pyrazol-4-ylmethyl}-3H-[1,3,4]oxadiazol-2-one] | < 500 |
| CS(=O)(=O)NC(=O)Cc1c(C(=O)N2CCC(c3ccccc3F)CC2)nn(-c2ccccc2Cl)c1-c1ccc(Cl)cc1 [Compound 3.01, N-(2-{1-(2-Chloro-phenyl)-5-(4-chloro-phenyl)-3-[4-(2-fluoro-phenyl)-piperidine-1-carbonyl]-1H-pyrazol-4-yl}-acetyl)-methanesulfonamide] | < 500 |
| N#CNC(=O)Cc1c(C(=O)N2CCC(c3ccccc3F)CC2)nn(-c2ccccc2Cl)c1-c1ccc(Cl)cc1 [Compound 4.01, 2-{1-(2-Chloro-phenyl)-5-(4-chloro-phenyl)-3-[4-(2-fluoro-phenyl)-piperidine-1-carbonyl]-1H-pyrazol-4-yl}-N-cyano-acetamide] | < 500 |
| N#CNC(=O)Cc1c(C(=O)N2CCC(Oc3cc(F)cc(F)c3)CC2)nn(-c2ccccc2Cl)c1-c1ccc(Cl)cc1 [Compound 4.03, {1-(2-Chloro-phenyl)-5-(4-chloro-phenyl)-3-[4-(3,5-difluoro-phenoxy)-piperidine-1-carbonyl]-1H-pyrazol-4-yl}-N-cyano-acetamide] | < 500 |
| O=C1NC(=O)C(Cc2c(C(=O)N3CCC(c4ccccc4F)CC3)nn(-c3ccccc3Cl)c2-c2ccc(Cl)cc2)N1 (centres unmarked) [Compound 6.01, 5-{1-(2-Chloro-phenyl)-5-(4-chloro-phenyl)-3-[4-(2-fluoro-phenyl)-piperidine-1-carbonyl]-1H-pyrazol-4-ylmethyl}-imidazolidine-2,4-dione] | < 500 |

Now from value to molecule:

| IC50 [nM] | Molecule |
| --- | --- |
| < 500 | C[C@H](c1ccc(C(F)(F)F)cc1)N(C)C(=O)c1nn(-c2ccccc2Cl)c(-c2ccc(Cl)cc2)c1CC(=O)NS(C)(=O)=O [Compound 3.02, 1-(2-Chloro-phenyl)-5-(4-chloro-phenyl)-4-(2-methanesulfonylamino-2-oxo-ethyl)-1H-pyrazole-3-carboxylic acid methyl-[(R)-1-(4-trifluoromethyl-phenyl)-ethyl]-amide] |
| < 500 | C[C@H](c1ccc(C(F)(F)F)cc1)N(C)C(=O)c1nn(-c2ccccc2Cl)c(-c2ccc(Cl)cc2)c1CC(=O)NC#N [Compound 4.02, (1-(2-Chloro-phenyl)-5-(4-chloro-phenyl)-3-{methyl-[(R)-1-(4-trifluoromethyl-phenyl)-ethyl]-carbamoyl}-1H-pyrazol-4-yl)-N-cyano-acetamide] |
| < 500 | C[C@H](c1ccc(C(F)(F)F)cc1)N(C)C(=O)c1nn(-c2ccccc2Cl)c(-c2ccc(Cl)cc2)c1C1CC(=O)NC1=O (stereo partly drawn) [Compound 5.01, 1-(2-Chloro-phenyl)-5-(4-chloro-phenyl)-4-(2,5-dioxo-pyrrolidin-3-yl)-1H-pyrazole-3-carboxylic acid methyl-[(R)-1-(4-trifluoromethyl-phenyl)-ethyl]-amide] |
| < 500 | C[C@@H](NC(=O)c1nn(-c2ccccc2Cl)c(-c2ccc(Cl)cc2)c1CC1NC(=O)NC1=O)c1ccc(C(F)(F)F)cc1 (some centres unmarked) [Compound 6.02] |
